Assay results published in US20190321420A1, “METHOD AND COMPOSITION FOR PREVENTING, TREATING OR RELIEVING BONE DISEASES” (GRAPE KING BIO Ltd., priority 2018, published 2019).
Marks after values point to notes of the source that are not given here.

Key:
[1] = tested on: ovariectomized ICR female mice; assay: Micro-CT bone tissue analysis of the right distal femur in ovariectomized mice (osteoporosis model); format: in vivo; settings: 32nd day after ovariectomy, GKM3/GKS6 205 mg/kg oral gavage once/day for 28 days, Alen 2.5 mg/kg 3 times a week for 28 days, n = 6
[2] = tested on: ovariectomized ICR female mice; assay: Bone mineral density (BMD) of the femur in ovariectomized mice; format: in vivo; settings: right femur, 32nd day after ovariectomy; GKM3/GKS6 205 mg/kg oral gavage once/day for 28 days; Alen 2.5 mg/kg 3 times a week for 28 days; n = 6
Description: In this embodiment, GKM3 and GKS6 powders were each prepared in a 0.5% (w/v) carboxymethylcellulose (CMC) solution as a suspension with a concentration of 205 mg/mL The vehicle group used 0.5% (w/v) CMC solution.
Because bone metabolism is closely related to estrogen, mice with bilateral ovariectomy were used as a model for studying osteoporosis in postmenopausal animals. After the recovery period of 1 to 2 weeks after the bilateral ovariectomy, mice were randomly assigned to different treatment groups.
In this embodiment, 8-week-old ICR female mice were purchased from BioLASCO Taiwan Co., Ltd., and ovariectomy (OVX) was performed when they were 9 weeks old. […]
Computerized tomography images of the right distal femur of ICR mice were obtained by a micro-computed tomography (micro-CT) scanner (SkyScan 1076, Kontizh, Belgium) with a resolution of 18 μm and were analyzed by a software to obtain the trabecular bone volume density (i.e., bone volume/tissue volume, BV/TV), the trabecular thickness (Tb.Th), the trabecular number (Tb.N), and the trabecular spacing (Tb.Sp). The analyzed position was selected to include the area of 100 pieces under the growth plate but not the cortical bone. […]
The bone density (mass/volume) was detected by the micro-CT. […]
The obtained data in the experiments were analyzed with one-way analysis of variance (one-way ANOVA) and the Duncan's multiple range test. […]

## NCCCC(O)(P(=O)(O)O)P(=O)(O)O [Alen, alendronate]
[1]
  Femur Tb.N: 3.3 ± 0.1 No./mm
  Femur Tb.Sp: 232.9 ± 25.9 μm
  Femur Tb.Th: 109.9 ± 3.9 μm
[2]
  Femur BMD: 0.60 ± 0.02* g/cm^3
